Reference: patent publication US20170312305A1, “PHARMACEUTICAL EXTRACTS AND USES THEREOF” (UNIVERSITY OF SALFORD ENTERPRISES LIMITED, priority 2014, published 2017)

How the values were obtained:
MDANQ01 cells = assay: MTT cell viability assay, MDANQ01 breast cancer cells; assay type: cell-based; conditions: MDANQ01, 96 hours, cisplatinum 1-25 μM
Experimental: (§1) The breast cancer cell MDA 468 and MDANQ01, K562 and human lymphoblastic cell line (MOLT-4) were grown in RPMI 1640 medium supplemented with 1% L-glutamine, 1% of 100 Units/ml penicillin and 0.1 mg/ml streptomycin and 10% inactivated FCS. While the […] cell line HeLa and fibroblast cell line 3T3 were grown in DMEM medium supplemented with 20% inactivated FCS, 1% L-glutamine, 1% of 100 units/ml penicillin & 0.1 mg/ml streptomycin. All cell lines were maintained in a humidified incubator with an atmosphere of 95% air and 5% CO2 at 37° C.
(§2) Cell viability was determined by the MTT (3-(4,5 dimethylthiazol2-yl)-2,5 diphenyltetrazolium bromide) test method. […] The metabolic activity of each well was determined by the (MTT) assay and compared to those of untreated cells. […] Cell viability was determined based on mitochondrial conversion of 3[4,5-dimethylthiazol-2-yl] […] The plates were gently agitated until the colour reaction was uniform and the absorbance was measured at 570 nm using a multi-well plate reader, Sigma Plot 2000 software was used for data analysis. The cell viability effects from exposure of cells to each concentration of crude whelk GAGs, commercial GAGs and cisplatinum were analysed as percentages of the control cell absorbance, which were obtained from control wells plated in RPMI, 1% L-glutamate and 10% FCS media. […]

MDA-468 cells = assay: MTT cell viability assay, MDA-468 breast cancer cells; assay type: cell-based; conditions: MDA-468, 96 hours, cisplatinum 1-25 μM
Experimental: as §1, §2

With `N.N.[Cl][Pt][Cl]` [cisplatinum] the IC50 (MDANQ01 cells) was 630 nM and the IC50 (MDA-468 cells) was 880 nM.
